Reference: ChEMBL document CHEMBL1158451, “Generation of ligand-based pharmacophore model and virtual screening for identification of novel tubulin inhibitors with potent anticancer activity” (J Med Chem, 2009)
Activity calls are given as the source filed them. The rule behind the calls is not given here.

Legend:
KB [1] = assay: Growth inhibition of human KB cells by methylene blue assay; format: functional, cell-based
[2] = Inhibition of tubulin polymerization
Bos taurus = species: Bos taurus; assay: (§1) Inhibition of bovine brain tubulin polymerization after 30 mins by […] assay
[3] = as §1; set-up: species or system Bos taurus
HCT-116 [4] = assay: Antiproliferative activity against human HCT116 xenografted tumor histoculture at 10uM after 48 hrs by hematoxylin staining; format: functional, cell-based
KB [5] = assay: Cell cycle arrest in human KB cells assessed as accumulation at G2/M phase at 800 nM after 24 hrs using propidium iodide staining by flow cytometry; format: functional
KB [6] = assay: Cell cycle arrest in human KB cells assessed as loss of accumulation at G0/G1 phase after 24 hrs using propidium iodide staining by flow cytometry; format: functional, cell-based
KB [7] = assay: Antiproliferative activity against human KB cells after incubation for three generations by MTS assay; format: functional, cell-based
HCT-116 [8] = assay: Antiproliferative activity against human HCT116 xenografted tumor histoculture at 100 uM after 48 hrs by hematoxylin staining; format: functional, cell-based
MCF7 = assay: Antiproliferative activity against human MCF7 cells after incubation for three generations by MTS assay; format: functional, cell-based
NCI-H460 = assay: Antiproliferative activity against human NCI-H460 cells after incubation for three generations by MTS assay; format: functional, cell-based
KB [9] = assay: Cell cycle arrest in human KB cells assessed as accumulation at G2/M phase at 400 nM using propidium iodide staining by flow cytometry; format: functional, cell-based; details: TDE = time-dependent effect
HCT-116 [10] = assay: Antiproliferative activity against human HCT116 xenografted tumor histoculture at 1 uM after 48 hrs by hematoxylin staining; format: functional, cell-based
KB [11] = assay: Cell cycle arrest in human KB cells assessed as accumulation at G2/M phase after 24 hrs using propidium iodide staining by flow cytometry; format: functional, cell-based
KB [12] = assay: Cell cycle arrest in human KB cells assessed as accumulation at G2/M phase at 400 nM after 24 hrs using propidium iodide staining by flow cytometry; format: functional
KB [13] = assay: Cell cycle arrest in human KB cells assessed as accumulation at sub-G1 phase at 400 nM using propidium iodide staining by flow cytometry; format: functional, cell-based; details: TDE = time-dependent effect
KB [14] = assay: Cell cycle arrest in human KB cells assessed as loss of accumulation at G0/G1 phase at 400 nM using propidium iodide staining by flow cytometry; format: functional, cell-based; details: TDE = time-dependent effect
SF-268 = assay: Antiproliferative activity against human SF268 cells after three generation of incubation by MTS assay; format: functional, cell-based
[15] = Inhibition of bovine cerebral cortex tubulin polymerization up to 30 mins; set-up: species or system Bos taurus

| Compound | IC50 (KB [1]) [nM] | other results |
| --- | --- | --- |
| COc1ccc2c(C(=O)c3cc(OC)c(OC)c(OC)c3)c(C)n(CCN(C)C)c2c1 | 332 |  |
| CCCCCCc1[nH]c2cc(OC)ccc2c1C(=O)c1cc(OC)c(OC)c(OC)c1 | 37.8 |  |
| COc1ccc2c(C(=O)c3cc(OC)c(OC)c(OC)c3)cn(-c3ccc([N+](=O)[O-])cc3)c2c1 | 290 |  |
| COc1ccc2c(C(=O)c3cc(OC)c(OC)c(OC)c3)cn(C)c2c1 | 34 |  |
| COc1cc2c(c(N)c1OC)C(=O)/C(=C\c1cc(C)c(O)c(C)c1)C2 [INDANOCINE] |  | IC50 [2]: 1700 nM |
| CCOC(=O)n1cc(C(=O)c2cc(OC)c(OC)c(OC)c2)c2ccc(OC)cc21 | 73 |  |
| Cc1ccc(C)c(Nc2cc(C)nc(-c3ccccc3O)n2)c1 | 3000 |  |
| COc1ccc2c(C(=O)c3cc(OC)c(OC)c(OC)c3)c(CO)[nH]c2c1 | 1.2 |  |
| COc1ccc2c(C(=O)c3cc(OC)c(OC)c(OC)c3)c(CCCCO)[nH]c2c1 | 6.6 |  |
| COc1ccc2c(C(=O)c3cc(OC)c(OC)c(OC)c3)cn(CCN3CCN(c4ccccn4)CC3)c2c1 | 292 |  |
| O=C(/C=C/c1ccccc1)c1ccccc1 [CHALCONE] |  | IC50 [2]: 10000 nM |
| COc1ccc2c(C(=O)c3cc(OC)c(OC)c(OC)c3)cn(Cc3ccncc3)c2c1 | 210 |  |
| COc1ccc2c(C(=O)c3cc(OC)c(OC)c(OC)c3)cn(CCCCCN(C)C)c2c1 | 1800 |  |
| CCCCCn1cc(C(=O)c2cc(OC)c(OC)c(OC)c2)c2ccc(OC)cc21 | 350 |  |
| COc1ccc2c(C(=O)c3cc(OC)c(OC)c(OC)c3)cn(CCCCO)c2c1 | 75 |  |
| COc1ccc(-n2cc(C(=O)c3cc(OC)c(OC)c(OC)c3)c3ccc(OC)cc32)cc1 | 207 |  |
| COc1ccc2c(C(=O)c3cc(OC)c(OC)c(OC)c3)cn(CCCCCCO)c2c1 | 70 |  |
| COc1ccc2c(C(=O)c3cc(OC)c(OC)c(OC)c3)cn(CCCCN(C)C)c2c1 | 6000 |  |
| Cc1ccc(CCC(=O)Nc2ncc(Cc3cc(Cl)ccc3Cl)s2)o1 | 187 | Activity (Bos taurus): Dose-dependent effect; IC50 [3]: 4400 nM; Activity (HCT-116 [4]): Active; Activity (KB [5]): 70.3%; Activity (KB [6]): Dose-dependent effect; IC50 (KB [7]): 187 nM; Activity (HCT-116 [8]): Active; IC50 (MCF7): 236 nM; IC50 (NCI-H460): 285 nM; Activity (KB [9]): tde; Activity (HCT-116 [10]): Active; Activity (KB [11]): Dose-dependent effect; Activity (KB [12]): 55.6%; Activity (KB [13]): tde; Activity (KB [14]): tde; IC50 (SF-268): 319 nM |
| CCCCCc1[nH]c2cc(OC)ccc2c1C(=O)c1cc(OC)c(OC)c(OC)c1 | 38 |  |
| COc1ccc2c(C(=O)c3cc(OC)c(OC)c(OC)c3)cn(CCCCCCN(C)C)c2c1 | 2100 |  |
| CCn1cc(C(=O)c2cc(OC)c(OC)c(OC)c2)c2ccc(OC)cc21 | 64 |  |
| CCOC(=O)Cc1[nH]c2cc(OC)ccc2c1C(=O)c1cc(OC)c(OC)c(OC)c1 | 3.9 |  |
| CCN(CC)CCn1c(C)c(C(=O)c2cc(OC)c(OC)c(OC)c2)c2ccc(OC)cc21 | 288 |  |
| COc1ccc2c(C(=O)c3cc(OC)c(OC)c(OC)c3)cn(CCN3CCCCC3)c2c1 | 93 |  |

| Compound | IC50 (KB [1]) [nM] | other results |
| --- | --- | --- |
| CCCn1cc(C(=O)c2cc(OC)c(OC)c(OC)c2)c2ccc(OC)cc21 | 180 |  |
| CCCCc1[nH]c2cc(OC)ccc2c1C(=O)c1cc(OC)c(OC)c(OC)c1 | 14.3 |  |
| COc1ccc2c(C(=O)c3cc(OC)c(OC)c(OC)c3)cn(CCN3CCCC3)c2c1 | 406 |  |
| CCCCn1c(C)c(C(=O)c2cc(OC)c(OC)c(OC)c2)c2ccc(OC)cc21 | 346 |  |
| COc1ccc2c(C(=O)c3cc(OC)c(OC)c(OC)c3)cn(C(C)C)c2c1 | 287 |  |
| COc1ccc2c(C(=O)c3cc(OC)c(OC)c(OC)c3)cn(C(=O)N3CCOCC3)c2c1 | 237 |  |
| CCN(CC)CCn1cc(C(=O)c2cc(OC)c(OC)c(OC)c2)c2ccc(OC)cc21 | 1800 |  |
| COc1ccc2c(C(=O)c3cc(OC)c(OC)c(OC)c3)cn(CCCN(C)C)c2c1 | 1700 |  |
| COc1ccc2c(C(=O)c3cc(OC)c(OC)c(OC)c3)cn(CCN3CCN(C)CC3)c2c1 | 4100 |  |
| COC(=O)c1[nH]c2cc(OC)ccc2c1C(=O)c1cc(OC)c(OC)c(OC)c1 | 5.5 |  |
| C1=NNCO1 [OXADIAZOLINE] |  | IC50 [15]: 4500 nM |
| CCCc1[nH]c2cc(OC)ccc2c1C(=O)c1cc(OC)c(OC)c(OC)c1 | 11 |  |
| COc1ccc2c(C(=O)c3cc(OC)c(OC)c(OC)c3)cn(CCN3CCCCCC3)c2c1 | 280 |  |
| COc1ccc2c(C(=O)c3cc(OC)c(OC)c(OC)c3)c(CN(C)C)[nH]c2c1 | 49.8 |  |
| COc1ccc2c(C(=O)c3cc(OC)c(OC)c(OC)c3)c(CCCCCO)[nH]c2c1 | 57.3 |  |
| COc1ccc2c(C(=O)c3cc(OC)c(OC)c(OC)c3)cn(CCN(C)C)c2c1 | 200 |  |
| COc1ccc2c(C(=O)c3cc(OC)c(OC)c(OC)c3)c(C)n(CCN3CCCCC3)c2c1 | 222 |  |
| COc1ccc2c(C(=O)c3cc(OC)c(OC)c(OC)c3)cn(CCN3CCC[C@@H]3CO)c2c1 | 500 |  |
| COc1ccc2c(C(=O)c3cc(OC)c(OC)c(OC)c3)cn(CCO)c2c1 | 55 |  |
| COc1ccc2c(C)cc(N/N=C/c3ccccc3O)nc2c1 | 2000 |  |
| CCCCCCn1cc(C(=O)c2cc(OC)c(OC)c(OC)c2)c2ccc(OC)cc21 | 455 |  |
| COc1ccc2c(C(=O)c3cc(OC)c(OC)c(OC)c3)c(CCCO)[nH]c2c1 | 92 |  |
| COc1ccc2ccccc2c1-c1cc(C(=O)N/N=C/c2cccs2)[nH]n1 | 5700 |  |
| COc1ccc2c(C(=O)c3cc(OC)c(OC)c(OC)c3)cn(S(=O)(=O)c3ccccc3)c2c1 | 200 |  |
